Assay results reported in patent US20240197691A1, “TACROLIMUS COMPOSITIONS AND METHODS OF USE” (CN2 THERAPEUTICS, INC., priority 2022, published 2024).
Values joined by “and” are separate entries in the source; they are usually repeats but may differ in a detail not shown here. Identical values can stand only once.

Tests used:
[1] = Forced degradation (thermal, acidic, basic, oxidative, UV); format: physicochemical
Experimental: Forced degradation of the drug product by thermal, acidic, basic, oxidative and UV stress conditions was performed. Forced degradation for the thermal, acidic and oxidative conditions were performed at 40° C., as it was anticipated that the drug would be stable under these conditions, based on its structure. UV and basic conditions were performed at ambient conditions. The drug product is most susceptible to basic stress conditions, and to a lesser extent is susceptible to UV and oxidative conditions. A summary of all the degradation peaks as a function of the stress condition can be found in Table 28.

[2] = Gamma irradiation of Tacrolimus; format: physicochemical
From the text: In certain embodiments, the composition can be irradiated before administration to a subject. For example, at least one component of the composition, such as, for example, tacrolimus, can undergo gamma irradiation before the final composition is created or the final composition can undergo gamma irradiation. In certain embodiments, the composition can be irradiated at a dose ranging from about 1 kilo-Gray (kGy) to about 100 kGy, preferably about 10 kGy to about 75 kGy, most preferably about 15 kGy to about 40 kGy.
The composition can be irradiated at a dose ranging from about 1 kilo-Gray (kGy) to about 100 kGy, preferably about 10 kGy to about 75 kGy, most preferably about 15 kGy to about 40 kGy (Table 36).

[3] = pH 5
[4] = reported; cited from earlier work
[5] = Surface tension (pendant drop); format: physicochemical; settings: Theta Lite Optical Tensiometer, 5 μL
Experimental: The Theta Lite Optical Tensiometer, Pendant drop Method, 5 μL sample size was used to measure the surface tension of the tacrolimus compositions.

[6] = Contact angle on parafilm; format: physicochemical; settings: 20 μL on parafilm, ambient temperature
Experimental: The Theta Lite Optical Tensiometer, Dynamic Contact Angle Measurement, 20 μL sample size was used to measure the contact angle of the tacrolimus compositions of parafilm of 73.50 and 73.20. The tacrolimus composition has better wettability on the hydrophobic surface of parafilm when compared to water (97.90 and 99.90).

With `C=CC[C@@H]1/C=C(\C)C[C@H](C)C[C@H](OC)[C@H]2O[C@@](O)(C(=O)C(=O)N3CCCC[C@H]3C(=O)O[C@H](/C(C)=C/[C@@H]3CC[C@@H](O)[C@H](OC)C3)[C@H](C)[C@@H](O)CC1=O)[C@H](C)C[C@@H]2OC.O` [Tacrolimus] the “Degradant at RRT 0.52, Area %” value ([1]; Acid, 72h (40° C.)) was 0.52 (0.47%), the “Degradant at RRT 1.32, Area %” value ([1]; Acid, 72h (40° C.)) was 1.32 (0.09%) and the “Degradant at RRT 1.36, Area %” value ([1]; Acid, 72h (40° C.)) was 1.36 (0.07%). The “Degradant at RRT 0.39, Area %” value ([1]; Base, 5 min (ambient)) was 0.39 (1.52%), the “Degradant at RRT 0.52, Area %” value ([1]; Base, 5 min (ambient)) was 0.52 (27.62%) and the “Degradant at RRT 0.79, Area %” value ([1]; Base, 5 min (ambient)) was 0.79 (0.97%). The “Degradant at RRT 1.28, Area %” value ([1]; Base, 5 min (ambient)) was 1.28 (0.20%), the “Degradant at RRT 1.32, Area %” value ([1]; Base, 5 min (ambient)) was 1.32 (3.02%) and the “Degradant at RRT 1.35, Area %” value ([1]; Base, 5 min (ambient)) was 1.35 (2.37%). The “Degradant at RRT 0.43, Area %” value ([1]; Peroxide, 48 h (40° C.)) was 0.43 (2.03%), the “Degradant at RRT 1.18, Area %” value ([1]; Peroxide, 48 h (40° C.)) was 1.18 (0.17%) and the “Degradant at RRT 1.20, Area %” value ([1]; Peroxide, 48 h (40° C.)) was 1.20 (0.05%). For the same molecule, the “Degradant at RRT 1.25, Area %” value ([1]; Peroxide, 48 h (40° C.)) was 1.25 (0.35%), the “Degradant at RRT 1.27, Area %” value ([1]; Peroxide, 48 h (40° C.)) was 1.27 (0.16%) and the “Degradant at RRT 1.29, Area %” value ([1]; Peroxide, 48 h (40° C.)) was 1.29 (0.10%). For the same molecule, the “Degradant at RRT 1.33, Area %” value ([1]; Peroxide, 48 h (40° C.)) was 1.33 (0.06%), the “Degradant at RRT 1.44, Area %” value ([1]; Peroxide, 48 h (40° C.)) was 1.44 (0.08%) and the “Degradant at RRT 0.43, Area %” value ([1]; Thermal, 72 h (40° C.)) was 0.43 (0.96%). For the same molecule, the “Degradant at RRT 0.38, Area %” value ([1]; UV, 72 h (ambient)) was 0.38 (0.36%), the “Degradant at RRT 0.45, Area %” value ([1]; UV, 72 h (ambient)) was 0.45 (0.88%) and the “Degradant at RRT 0.53, Area %” value ([1]; UV, 72 h (ambient)) was 0.53 (3.07%). For the same molecule, the “Degradant at RRT 0.58, Area %” value ([1]; UV, 72 h (ambient)) was 0.58 (0.40%), the “Degradant at RRT 1.03, Area %” value ([1]; UV, 72 h (ambient)) was 1.03 (1.30%) and the “Degradant at RRT 1.10, Area %” value ([1]; UV, 72 h (ambient)) was 1.10 (0.94%). The “Degradant at RRT 1.13, Area %” value ([1]; UV, 72 h (ambient)) was 1.13 (2.90%), the “Degradant at RRT 1.17, Area %” value ([1]; UV, 72 h (ambient)) was 1.17 (5.21%) and the “Degradant at RRT 1.21, Area %” value ([1]; UV, 72 h (ambient)) was 1.21 (13.81%). The “% impurities” value ([2]; 15 kGy solid) was 0.82%, the “Total [Tac] in sample measured” value ([2]; 15 kGy solid) was 0.96 mg/g and the “% impurities” value ([2]; 25 kGy solid) was 0.88%. The “Total [Tac] in sample measured” value ([2]; 25 kGy solid) was 0.92 mg/g, the “% impurities” value ([2]; 40 kGy solid) was 0.91% and the “Total [Tac] in sample measured” value ([2]; 40 kGy solid) was 0.91 mg/g. For the same molecule, the “% impurities” value ([2]; Control solid) was 0.56%, the “Total [Tac] in sample measured” value ([2]; Control solid) was 0.99 mg/g and the “Solubility of Tacrolimus in the supernatant” value [3] was at most 3.2 µg/g. The “log P” value [4] was 3.3.

For Water, the “Surface Tension” value [5] was 72 mN/m and the Contact angle [6] was 97.9 ° and 99.9 °.
